{"source": "ChEMBL document CHEMBL3046188", "about": "“Prodrug-oriented molecular design of neonicotinoids: preparation of imidacloprid-related 5,5-dimethoxy-1,3-diazacyclohexane derivatives and their insecticidal activity” (2005)", "type_in_all_cases": "functional", "key": {"Periplaneta americana [1]": {"tested_on": "Periplaneta americana", "experiment": "Insecticidal activity against Periplaneta americana (American cockroach) administered through injection into abdomen co-injceted with 50 ug piperonyl butoxide and 50 ug NIA 16388 measured 24 hr post compound injection"}, "Myzus persicae [2]": {"tested_on": "Myzus persicae", "experiment": "Insecticidal activity against Myzus persicae (green peach aphid) reared on compound pre-treated […] plants assessed as insect mortality rate at 0.8 ppm measured 7 days post compound treatment"}, "Myzus persicae [3]": {"tested_on": "Myzus persicae", "experiment": "Insecticidal activity against Myzus persicae (green peach aphid) reared on compound pre-treated […] plants assessed as insect mortality rate at 0.16 ppm measured 7 days post compound treatment"}, "Myzus persicae [4]": {"tested_on": "Myzus persicae", "experiment": "Insecticidal activity against Myzus persicae (green peach aphid) reared on compound pre-treated […] plants assessed as insect mortality rate at 20 ppm measured 7 days post compound treatment"}, "Periplaneta americana [5]": {"tested_on": "Periplaneta americana", "experiment": "Neuroblocking potency in Periplaneta americana (American cockroach) abdominal fifth and sixth ganglia assessed as neuroblocking concentration"}, "Myzus persicae [6]": {"tested_on": "Myzus persicae", "experiment": "Insecticidal activity against Myzus persicae (green peach aphid) reared on compound pre-treated […] plants assessed as insect mortality rate at 4 ppm measured 7 days post compound treatment"}, "Periplaneta americana [7]": {"tested_on": "Periplaneta americana", "experiment": "Insecticidal activity against Periplaneta americana (American cockroach) administered through injection into abdomen measured 24 hr post compound injection"}, "Myzus persicae [8]": {"tested_on": "Myzus persicae", "experiment": "Insecticidal activity against Myzus persicae (green peach aphid) reared on compound pre-treated […] plants assessed as insect mortality rate at 100 ppm measured 7 days post compound treatment"}}}
{"compound": "C/N=C(\\NCc1ccc(Cl)nc1)N[N+](=O)[O-]", "values": [{"measurement": "MLD", "setting": "Periplaneta americana [1]", "result": 0.0051, "unit": "µmol"}, {"measurement": "mortality at 0.8 ppm", "setting": "Myzus persicae [2]", "result": 100, "unit": "%"}, {"measurement": "mortality at 0.16 ppm", "setting": "Myzus persicae [3]", "result": 100, "unit": "%"}, {"measurement": "mortality at 20 ppm", "setting": "Myzus persicae [4]", "result": 100, "unit": "%"}, {"measurement": "Activity", "setting": "Periplaneta americana [5]", "result": 0.0085, "unit": "mM"}, {"measurement": "mortality at 4 ppm", "setting": "Myzus persicae [6]", "result": 100, "unit": "%"}, {"measurement": "MLD", "setting": "Periplaneta americana [7]", "result": 0.0051, "unit": "µmol"}]}
{"compound": "O=[N+]([O-])/N=C1\\NCCCN1Cc1ccc(Cl)nc1", "values": [{"measurement": "MLD", "setting": "Periplaneta americana [1]", "result": 0.015, "unit": "µmol"}, {"measurement": "mortality at 0.8 ppm", "setting": "Myzus persicae [2]", "result": 100, "unit": "%"}, {"measurement": "mortality at 0.16 ppm", "setting": "Myzus persicae [3]", "result": 90, "unit": "%"}, {"measurement": "mortality at 20 ppm", "setting": "Myzus persicae [4]", "result": 100, "unit": "%"}, {"measurement": "Activity", "setting": "Periplaneta americana [5]", "result": 0.0045, "unit": "mM"}, {"measurement": "mortality at 4 ppm", "setting": "Myzus persicae [6]", "result": 100, "unit": "%"}, {"measurement": "MLD", "setting": "Periplaneta americana [7]", "result": "9.6e-05", "unit": "µmol"}]}
{"compound": "N/C(=N\\[N+](=O)[O-])NCc1ccc(Cl)nc1", "values": [{"measurement": "MLD", "setting": "Periplaneta americana [1]", "result": ">0.4", "unit": "µmol"}, {"measurement": "Activity", "setting": "Periplaneta americana [5]", "result": ">0.65", "unit": "mM"}, {"measurement": "mortality at 100 ppm", "setting": "Myzus persicae [8]", "result": 60, "unit": "%"}, {"measurement": "MLD", "setting": "Periplaneta americana [7]", "result": ">0.4", "unit": "µmol"}]}
{"compound": "COC1CN/C(=N\\[N+](=O)[O-])N(Cc2ccc(Cl)nc2)C1", "note": "(stereo not drawn)", "values": [{"measurement": "mortality at 20 ppm", "setting": "Myzus persicae [4]", "result": 40, "unit": "%"}, {"measurement": "mortality at 4 ppm", "setting": "Myzus persicae [6]", "result": 0, "unit": "%"}]}
{"compound": "CC1(C)CN/C(=N\\[N+](=O)[O-])N(Cc2ccc(Cl)nc2)C1", "values": [{"measurement": "mortality at 20 ppm", "setting": "Myzus persicae [4]", "result": 60, "unit": "%"}, {"measurement": "mortality at 4 ppm", "setting": "Myzus persicae [6]", "result": 0, "unit": "%"}]}
{"compound": "COC1(OC)CN/C(=C\\[N+](=O)[O-])N(CC2CCOC2)C1", "note": "(stereo not drawn)", "values": [{"measurement": "MLD", "setting": "Periplaneta americana [1]", "result": ">0.36", "unit": "µmol"}, {"measurement": "mortality at 20 ppm", "setting": "Myzus persicae [4]", "result": 60, "unit": "%"}, {"measurement": "Activity", "setting": "Periplaneta americana [5]", "result": ">0.54", "unit": "mM"}, {"measurement": "mortality at 4 ppm", "setting": "Myzus persicae [6]", "result": 0, "unit": "%"}, {"measurement": "MLD", "setting": "Periplaneta americana [7]", "result": ">0.36", "unit": "µmol"}]}
{"compound": "COC1(OC)CN/C(=C\\[N+](=O)[O-])N(Cc2ccc(Cl)nc2)C1", "values": [{"measurement": "MLD", "setting": "Periplaneta americana [1]", "result": ">0.44", "unit": "µmol"}, {"measurement": "mortality at 0.8 ppm", "setting": "Myzus persicae [2]", "result": 0, "unit": "%"}, {"measurement": "mortality at 20 ppm", "setting": "Myzus persicae [4]", "result": 90, "unit": "%"}, {"measurement": "Activity", "setting": "Periplaneta americana [5]", "result": 1, "unit": "mM"}, {"measurement": "mortality at 4 ppm", "setting": "Myzus persicae [6]", "result": 60, "unit": "%"}, {"measurement": "MLD", "setting": "Periplaneta americana [7]", "result": 0.35, "unit": "µmol"}]}
{"compound": "COC1(OC)CN/C(=N\\C#N)N(Cc2ccc(Cl)nc2)C1", "values": [{"measurement": "MLD", "setting": "Periplaneta americana [1]", "result": ">0.4", "unit": "µmol"}, {"measurement": "mortality at 0.8 ppm", "setting": "Myzus persicae [2]", "result": 60, "unit": "%"}, {"measurement": "mortality at 0.16 ppm", "setting": "Myzus persicae [3]", "result": 20, "unit": "%"}, {"measurement": "mortality at 20 ppm", "setting": "Myzus persicae [4]", "result": 100, "unit": "%"}, {"measurement": "Activity", "setting": "Periplaneta americana [5]", "result": 0.62, "unit": "mM"}, {"measurement": "mortality at 4 ppm", "setting": "Myzus persicae [6]", "result": 60, "unit": "%"}, {"measurement": "MLD", "setting": "Periplaneta americana [7]", "result": ">0.4", "unit": "µmol"}]}
{"compound": "COC1(OC)CN(C)/C(=N\\[N+](=O)[O-])N(Cc2cnc(Cl)s2)C1", "values": [{"measurement": "MLD", "setting": "Periplaneta americana [1]", "result": ">0.36", "unit": "µmol"}, {"measurement": "mortality at 0.8 ppm", "setting": "Myzus persicae [2]", "result": 60, "unit": "%"}, {"measurement": "mortality at 0.16 ppm", "setting": "Myzus persicae [3]", "result": 40, "unit": "%"}, {"measurement": "mortality at 20 ppm", "setting": "Myzus persicae [4]", "result": 100, "unit": "%"}, {"measurement": "Activity", "setting": "Periplaneta americana [5]", "result": ">0.54", "unit": "mM"}, {"measurement": "mortality at 4 ppm", "setting": "Myzus persicae [6]", "result": 100, "unit": "%"}, {"measurement": "MLD", "setting": "Periplaneta americana [7]", "result": 0.36, "unit": "µmol"}]}
{"compound": "COC1(OC)CN(C)/C(=N\\[N+](=O)[O-])N(Cc2ccc(Cl)nc2)C1", "values": [{"measurement": "MLD", "setting": "Periplaneta americana [1]", "result": ">0.36", "unit": "µmol"}, {"measurement": "mortality at 0.8 ppm", "setting": "Myzus persicae [2]", "result": 60, "unit": "%"}, {"measurement": "mortality at 0.16 ppm", "setting": "Myzus persicae [3]", "result": 30, "unit": "%"}, {"measurement": "mortality at 20 ppm", "setting": "Myzus persicae [4]", "result": 90, "unit": "%"}, {"measurement": "Activity", "setting": "Periplaneta americana [5]", "result": ">0.56", "unit": "mM"}, {"measurement": "mortality at 4 ppm", "setting": "Myzus persicae [6]", "result": 90, "unit": "%"}, {"measurement": "MLD", "setting": "Periplaneta americana [7]", "result": 0.36, "unit": "µmol"}]}
{"compound": "COC1(OC)CN/C(=N\\[N+](=O)[O-])N(Cc2cnc(Cl)s2)C1", "values": [{"measurement": "MLD", "setting": "Periplaneta americana [1]", "result": ">0.34", "unit": "µmol"}, {"measurement": "mortality at 0.8 ppm", "setting": "Myzus persicae [2]", "result": 60, "unit": "%"}, {"measurement": "mortality at 0.16 ppm", "setting": "Myzus persicae [3]", "result": 50, "unit": "%"}, {"measurement": "mortality at 20 ppm", "setting": "Myzus persicae [4]", "result": 100, "unit": "%"}, {"measurement": "Activity", "setting": "Periplaneta americana [5]", "result": ">0.56", "unit": "mM"}, {"measurement": "mortality at 4 ppm", "setting": "Myzus persicae [6]", "result": 100, "unit": "%"}, {"measurement": "MLD", "setting": "Periplaneta americana [7]", "result": 0.24, "unit": "µmol"}]}
{"compound": "COC1(OC)CN/C(=N\\[N+](=O)[O-])N(Cc2ccc(Cl)nc2)C1", "values": [{"measurement": "MLD", "setting": "Periplaneta americana [1]", "result": ">0.38", "unit": "µmol"}, {"measurement": "mortality at 0.8 ppm", "setting": "Myzus persicae [2]", "result": 90, "unit": "%"}, {"measurement": "mortality at 0.16 ppm", "setting": "Myzus persicae [3]", "result": 60, "unit": "%"}, {"measurement": "mortality at 20 ppm", "setting": "Myzus persicae [4]", "result": 100, "unit": "%"}, {"measurement": "Activity", "setting": "Periplaneta americana [5]", "result": 0.56, "unit": "mM"}, {"measurement": "mortality at 4 ppm", "setting": "Myzus persicae [6]", "result": 100, "unit": "%"}, {"measurement": "MLD", "setting": "Periplaneta americana [7]", "result": 0.19, "unit": "µmol"}]}
